# Columns and labels:
# human JAK2 = target: T1, human JAK2 (Homo sapiens, UniProt O60674); test: Alphascreen tyrosine kinase enzyme assay, JAK2 kinase domain; type: biochemical; settings: read-out: JAK2 IC50_nM
# T1 construct: The kinase domain of human JAK2 was amplified; GST (N); made in house; host or cells: Sf9 insect cells (baculovirus)
# Outline: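 JAK2 kinase domain expressed in baculovirus/Sf9 and glutathione-affinity purified. Compounds (final […]) pre-incubated 20 min with enzyme in 10 mM HEPES pH 7.5, MgCl2, NaCl, vanadate, 0.1% Tween 20.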
# [1] = target: T2, BaF3 TELJAK2 cells (BafT_J2) (Homo sapiens, UniProt O60674); test: Cellular screening, BaF3 TEL:JAK2 cells, Alamar Blue; type: cell-based; settings: 40 hr, read-out: BafT_J2 IC50_nM
# T2 construct: fused on or other part: TEL (ETV6) N-terminal part, coding nucleotides 1-487, serves as the oligomerising partner; It is fused through a Sal I site to the JAK2 kinase domain and expressed from pTRE2 in BaF3 cells bearing pTET-off; P41212 (Transcription factor ETV6)
# T2 sequence (O60674 whole entry, change not shown, the tested form may be a part): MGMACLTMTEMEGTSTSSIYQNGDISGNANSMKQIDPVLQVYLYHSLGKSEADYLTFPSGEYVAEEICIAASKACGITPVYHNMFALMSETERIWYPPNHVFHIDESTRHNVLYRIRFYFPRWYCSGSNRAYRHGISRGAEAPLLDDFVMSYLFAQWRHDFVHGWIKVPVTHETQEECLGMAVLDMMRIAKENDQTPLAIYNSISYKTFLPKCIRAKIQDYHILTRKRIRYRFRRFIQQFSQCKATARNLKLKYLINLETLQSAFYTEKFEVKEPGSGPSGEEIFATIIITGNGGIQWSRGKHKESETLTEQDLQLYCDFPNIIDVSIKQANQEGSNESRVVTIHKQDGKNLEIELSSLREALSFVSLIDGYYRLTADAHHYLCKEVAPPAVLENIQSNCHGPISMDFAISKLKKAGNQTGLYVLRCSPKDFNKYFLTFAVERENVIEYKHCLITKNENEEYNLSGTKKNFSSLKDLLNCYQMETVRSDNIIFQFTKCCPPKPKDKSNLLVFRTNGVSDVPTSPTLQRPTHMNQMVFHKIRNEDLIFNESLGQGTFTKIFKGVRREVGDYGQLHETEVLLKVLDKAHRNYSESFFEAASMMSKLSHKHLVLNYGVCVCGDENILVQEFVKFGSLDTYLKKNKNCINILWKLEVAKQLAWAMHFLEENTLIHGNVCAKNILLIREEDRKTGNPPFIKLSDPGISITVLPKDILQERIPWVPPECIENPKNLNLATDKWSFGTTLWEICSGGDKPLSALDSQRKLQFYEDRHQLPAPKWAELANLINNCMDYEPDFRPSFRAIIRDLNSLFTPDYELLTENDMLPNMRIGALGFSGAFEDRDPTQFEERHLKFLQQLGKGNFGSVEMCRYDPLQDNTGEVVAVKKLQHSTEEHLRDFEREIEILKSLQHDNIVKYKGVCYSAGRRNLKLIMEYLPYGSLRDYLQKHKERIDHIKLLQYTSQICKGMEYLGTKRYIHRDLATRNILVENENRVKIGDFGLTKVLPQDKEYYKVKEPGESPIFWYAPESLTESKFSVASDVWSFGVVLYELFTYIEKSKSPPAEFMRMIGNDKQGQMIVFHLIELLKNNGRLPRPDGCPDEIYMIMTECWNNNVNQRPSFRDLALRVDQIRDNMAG
# Outline: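 Tet-off BaF3 cells carrying a TEL (nt 1-487)–JAK2 kinase-domain fusion, grown factor-independently in DMEM with 10% Tet-approved FBS without WEHI 3B medium. Compounds were diluted to 20 μM in screening plates, and cells (50,000–200,000 cell/mL at 1.1×) were incubated 40 hr at 37 °C, 5% CO2. Alamar Blue was then added for 4-6 hours; read at 544 nm.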
# CTLL2 = test: Cellular screening, CTLL2 cells, Alamar Blue; type: cell-based; settings: Mus musculus, CTLL-2, read-out: CTLL2 IC50_nM
# Outline: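 Viability is read with Alamar Blue at 544 nm, the dye added for the final 4-6 hours. Compounds were incubated for 40 hr with CTLL2 cells taken from late-log-phase culture, at 37° C in 5% CO2.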
# T1 sequence (O60674 849-1124 limits assumed): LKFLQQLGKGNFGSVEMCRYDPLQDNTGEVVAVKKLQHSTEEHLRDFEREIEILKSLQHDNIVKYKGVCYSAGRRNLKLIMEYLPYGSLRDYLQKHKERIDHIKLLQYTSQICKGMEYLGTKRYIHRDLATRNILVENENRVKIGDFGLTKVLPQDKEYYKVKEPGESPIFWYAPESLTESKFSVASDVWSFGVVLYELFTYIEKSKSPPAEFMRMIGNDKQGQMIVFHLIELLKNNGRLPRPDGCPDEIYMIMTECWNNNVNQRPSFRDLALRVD
Structure (SMILES),IC50 (human JAK2) [nM],GI50 [1] [µM],IC50 (CTLL2) [µM]
"Cc1cnc(Nc2ccc(N3CCOCC3)cc2)nc1Sc1ccc(N2C(=O)COCC2=O)cc1 [Compound 190, 4-(4-(5-methyl-2-(4-morpholinophenylao)pyrimidin-4-ylthio)phenyl)morpholine-3,5-dione]",< 500,> 20,> 20
"NC(=O)c1ccc(Sc2ccnc(Nc3ccc(N4CCOCC4)cc3)n2)cc1 [Compound 207, 4-(2-(4-morpholinophenylao)pyrimidin-4-ylthio)benzamide]",> 1000,> 20,
"N#Cc1ncn(Cc2ccc(Sc3ccnc(Nc4ccc(N5CCOCC5)cc4)n3)cc2)c1N [Compound 202, 5-ao-1-(4-(2-(4-morpholinophenylao)pyrimidin-4-ylthio)benzyl)-1H-imidazole-4-carbonitrile]",< 1000,< 5,< 5
"Cc1cnc(Nc2cccc(NS(C)(=O)=O)c2)nc1Sc1ccc(CO)cc1 [Compound 226, N-(3-(4-(4-(hydroxymethyl)phenylthio)-5-methylpyrimidin-2-ylao)phenyl)methanesulfonamide]",> 1000,< 5,
"Cc1cnc(Nc2ccc(N3CCOCC3)cc2)nc1Sc1ccc(C(C#N)N2CCOCC2)cc1 (stereo not shown) [Compound 223, 2-(4-(5-methyl-2-(4-morpholinophenylao)pyrimidin-4-ylthio)phenyl)-2-morpholinoacetonitrile]",> 1000,< 5,< 5
"Cc1cnc(Nc2ccc(N3CCOCC3)cc2)nc1Sc1ccc(CC#N)cc1 [Compound 222, 2-(4-(5-methyl-2-(4-morpholinophenylao)pyrimidin-4-ylthio)phenyl)acetonitrile]",> 1000,> 20,> 20
"CON(C)C(=O)c1ccc(Sc2nc(Nc3ccc(N4CCOCC4)cc3)ncc2C)cc1 [Compound 218, N-methoxy-N-methyl-4-(5-methyl-2-(4-morpholinophenylao)pyrimidin-4-ylthio)benzamide]",> 1000,> 20,> 20
"Cc1cnc(Nc2ccc(N3CCOCC3)cc2)nc1Sc1ccc(NC2CCOC2=O)cc1 (stereo not shown) [Compound 228, 3-(4-(5-methyl-2-(4-morpholinophenylao)pyrimidin-4-ylthio)phenylao)dihydrofuran-2(3H)-one]",> 1000,> 20,> 20
"Cc1cnc(Nc2ccc(N3CCOCC3)cc2)nc1Sc1ccc(NC(=O)CO)cc1 [Compound 229, 2-hydroxy-N-(4-(5-methyl-2-(4-morpholinophenylao)pyrimidin-4-ylthio)phenyl)acetamide]",< 1000,< 20,< 20
"C=CC(=O)Nc1cccc(Nc2nccc(SC)n2)c1 [Compound 7, N-(3-(4-(methylthio)pyrimidin-2-ylao)phenyl)acrylamide]",> 1000,< 20,< 5
"N#Cc1c(N)ncn1Cc1cccc(Sc2ccnc(Nc3ccc(N4CCOCC4)cc3)n2)c1 [Compound 199, 4-ao-1-(3-(2-(4-morpholinophenylao)pyrimidin-4-ylthio)benzyl)-1H-imiazole-5-carbonitrile]",< 1000,< 5,< 20
"Cc1cnc(Nc2ccc(N3CCOCC3)cc2)nc1Sc1cccc(CO)c1 [Compound 212, (3-(5-methyl-2-(4-morpholinophenylao)pyrimidin-4-ylthio)phenyl)methanol]",< 500,> 20,> 20
"N#CCc1ccc(Sc2ccnc(Nc3ccc(N4CCOCC4)cc3)n2)cc1 [Compound 210, 2-(4-(2-(4-morpholinophenylao)pyrimidin-4-ylthio)phenyl)acetonitrile]",> 1000,> 20,> 20
"N#Cc1c(N)ncn1Cc1ccc(Sc2ccnc(Nc3ccc(N4CCOCC4)cc3)n2)cc1 [Compound 203, 4-ao-1-(4-(2-(4-morpholinophenylao)pyrimidin-4-ylthio)benzyl)-1H-imidazole-5-carbonitrile]",< 1000,< 1,< 1
"Cc1cnc(Nc2ccc(N3CCOCC3)cc2)nc1Sc1ccc(C=O)cc1 [Compound 219, 4-(5-methyl-2-(4-morpholinophenylao)pyrimidin-4-ylthio)benzaldehyde]",> 1000,< 5,> 20
"Cc1cnc(Nc2ccc(N3CCOCC3)cc2)nc1Sc1ccc(C(=O)N2CCCC2)cc1 [Compound 224, (4-(5-methyl-2-(4-morpholinophenylao)pyrimidin-4-ylthio)phenyl)(pyrrolidin-1-yl)methanone]",< 1000,> 20,> 20
"Cc1cnc(Nc2ccc(N3CCOCC3)cc2)nc1Sc1ccc(C(C#N)N2CCN(C)CC2)cc1 (stereo not shown) [Compound 225, 2-(4-(5-methyl-2-(4-morpholinophenylao)pyrimidin-4-ylthio)phenyl)-2-(4-methylpiperazin-1-yl)acetonitrile]",> 1000,< 5,< 5
"Cc1cnc(Nc2cccc(S)c2)nc1Sc1ccc(NC(=O)CCl)cc1 [Compound 195, 2-chloro-N-(4-(2-(3-mercaptophenylao)-5-methylpyrimidin-4-ylthio)phenyl)acetamide]",> 1000,> 20,> 20
"Cc1cnc(Nc2ccc(N3CCOCC3)cc2)nc1Sc1ccc(N2CCSCC2=O)cc1 [Compound 197, 4-(4-(5-methyl-2-(4-morpholinophenylao)pyrimidin-4-ylthio)phenyl)thiomorpholin-3-one]",> 1000,> 20,> 20
"Cc1cnc(Nc2ccc(N3CCOCC3)cc2)nc1Sc1ccc(CO)cc1 [Compound 220, (4-(5-methyl-2-(4-morpholinophenylao)pyrimidin-4-ylthio)phenyl)methanol]",< 500,< 5,< 1
"c1cc(Sc2ccc(Cn3cncn3)cc2)nc(Nc2ccc(N3CCOCC3)cc2)n1 [Compound 204, 4-(4-((1H-1,2,4-triazol-1-yl)methyl)phenylthio)-N-(4-morpholinophenyl)pyrimidin-2-ae]",< 1000,< 5,< 20
"Cc1cnc(Nc2ccc(O)cc2)nc1Sc1ccc(N)cc1 [Compound 191, 4-(4-(4-aophenylthio)-5-methylpyrimidin-2-ylao)phenol]",> 1000,< 5,< 5

# Source: US8846704B2, “Thiopyrimidine-based compounds and uses thereof” (YM Biosciences Austraila Pty Ltd, priority 2007, dated 2014)
